These results are taken from patent publication US9605004B2, “Chemical compounds” (SYNGENTA LIMITED, priority 2013, dated 2017).

In experiment [1] the test system is a variety of test species. The experiment is described as follows: Pre-emergence herbicidal activity (Example 8a, Table 2). The experiment is classed as in vivo. Further details: key: 0 = no damage to plant, 5 = total damage to plant. Conditions: application pre-emergence, rate 1000 g/ha, evaluated after 13 days. In a few lines: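 Seeds sown in standard soil in pots, sprayed one day later (pre-emergence) with aqueous solution from acetone/water (50:50) formulation with 0.5% Tween 20. Glasshouse at 24/16 °C day/night, 14 h light, 65% humidity, watered twice daily. Damage scored after 13 days, 0 (none) to 5 (total).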

Experiment [2] concerns a variety of test species. The experiment is described as follows: Post-emergence herbicidal activity (Example 8b, Table 3). The experiment is classed as in vivo. The following applies: application post-emergence, rate 1000 g/ha, evaluated after 13 days, scale 0-5; for Herbicidal damage score, ABUTH: Abutilon theophrasti; for Herbicidal damage score, ALOMY: Alopecurus myosuroides; for Herbicidal damage score, AMARE: Amaranthus retroflexus; for Herbicidal damage score, ECHCG: Echinochloa crus-galli; for Herbicidal damage score, SETFA: Setaria faberi; for Herbicidal damage score, ZEAMX: Zea mays. In a few lines:
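Foliar application to 8-day-old plants using a 0.5% Tween 20 acetone/water carrier; phytotoxicity is scored visually from 0 to 5 after 13 days of growth at 24/16 °C day/night.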

Molecules are shown by their SMILES.

As to `COC1=C(C)C(O)N(c2cc3n(n2)CCC3(C)C)C1=O` (stereo not shown) [Compound R1], in experiment [1], the “Pre-emergence herbicidal activity, damage score ABUTH” value is reported as 5; the “Pre-emergence herbicidal activity, damage score ALOMY” value turned out to be 4; the “Pre-emergence herbicidal activity, damage score AMARE” value turned out to be 5; the “Pre-emergence herbicidal activity, damage score ECHCG” value amounted to 5. For the same compound, in experiment [1], the “Pre-emergence herbicidal activity, damage score SETFA” value is given as 5 and the “Pre-emergence herbicidal activity, damage score ZEAMX” value was found to be 4. In experiment [2], the “Herbicidal damage score, ABUTH” value was 5; the “Herbicidal damage score, ALOMY” value is listed as 5; the “Herbicidal damage score, AMARE” value turned out to be 5; the “Herbicidal damage score, ECHCG” value is recorded as 5. Also, in experiment [2], the “Herbicidal damage score, SETFA” value stood at 5 and the “Herbicidal damage score, ZEAMX” value is 5.

For the compound `CCC1CCCn2nc(N3C(=O)C(Cl)=C(C)C3O)cc21` (mixture of isomers) [Compound G7], in experiment [1], the “Pre-emergence herbicidal activity, damage score ABUTH” value was 5; the “Pre-emergence herbicidal activity, damage score ALOMY” value is listed as 3; the “Pre-emergence herbicidal activity, damage score AMARE” value is 5; the “Pre-emergence herbicidal activity, damage score ECHCG” value was 5. Also, in experiment [1], the “Pre-emergence herbicidal activity, damage score SETFA” value came out at 4 and the “Pre-emergence herbicidal activity, damage score ZEAMX” value was 1. Besides, in experiment [2], the “Herbicidal damage score, ABUTH” value came to 5; the “Herbicidal damage score, ALOMY” value was 4; the “Herbicidal damage score, AMARE” value is 5; the “Herbicidal damage score, ECHCG” value amounted to 5. For the same compound, in experiment [2], the “Herbicidal damage score, SETFA” value is listed as 5 and the “Herbicidal damage score, ZEAMX” value was 5.

For the compound `CC1=C(Cl)C(=O)N(c2cc(C(C)C)n(C)n2)C1O` (stereo not shown) [Compound B14], in experiment [1], the “Pre-emergence herbicidal activity, damage score ABUTH” value is 5; the “Pre-emergence herbicidal activity, damage score ALOMY” value amounted to 3; the “Pre-emergence herbicidal activity, damage score AMARE” value was determined as 5; the “Pre-emergence herbicidal activity, damage score ECHCG” value worked out at 5. In addition, in experiment [1], the “Pre-emergence herbicidal activity, damage score SETFA” value is 4 and the “Pre-emergence herbicidal activity, damage score ZEAMX” value was determined as 2. Besides, in experiment [2], the “Herbicidal damage score, ABUTH” value came to 5; the “Herbicidal damage score, ALOMY” value is 4; the “Herbicidal damage score, AMARE” value is 5; the “Herbicidal damage score, ECHCG” value stood at 5. For the same compound, in experiment [2], the “Herbicidal damage score, SETFA” value is recorded as 4 and the “Herbicidal damage score, ZEAMX” value came out at 5.

Turning to `CC1=C(Br)C(=O)N(c2cc(C(C)(C)C)[nH]n2)C1O` (stereo not shown) [Compound I1], in experiment [1], the “Pre-emergence herbicidal activity, damage score ABUTH” value was 5; the “Pre-emergence herbicidal activity, damage score ALOMY” value is listed as 4; the “Pre-emergence herbicidal activity, damage score AMARE” value is 5; the “Pre-emergence herbicidal activity, damage score ECHCG” value turned out to be 5. Moreover, in experiment [1], the “Pre-emergence herbicidal activity, damage score SETFA” value turned out to be 4 and the “Pre-emergence herbicidal activity, damage score ZEAMX” value was determined as 3. Besides, in experiment [2], the “Herbicidal damage score, ABUTH” value is 5; the “Herbicidal damage score, ALOMY” value was found to be 4; the “Herbicidal damage score, AMARE” value is 5; the “Herbicidal damage score, ECHCG” value was 5. In experiment [2], the “Herbicidal damage score, SETFA” value is 5 and the “Herbicidal damage score, ZEAMX” value is recorded as 5.

Take `CC1=C(Cl)C(=O)N(c2cc(C(C)C)[nH]n2)C1O` (stereo not shown) [Compound A3]: in experiment [1], the “Pre-emergence herbicidal activity, damage score ABUTH” value is recorded as 5; the “Pre-emergence herbicidal activity, damage score ALOMY” value was found to be 3; the “Pre-emergence herbicidal activity, damage score AMARE” value is listed as 5; the “Pre-emergence herbicidal activity, damage score ECHCG” value came out at 5. Besides, in experiment [1], the “Pre-emergence herbicidal activity, damage score SETFA” value is listed as 5 and the “Pre-emergence herbicidal activity, damage score ZEAMX” value is 1. Moreover, in experiment [2], the “Herbicidal damage score, ABUTH” value was 5; the “Herbicidal damage score, ALOMY” value is reported as 5; the “Herbicidal damage score, AMARE” value came out at 5; the “Herbicidal damage score, ECHCG” value is given as 5. In experiment [2], the “Herbicidal damage score, SETFA” value was 5 and the “Herbicidal damage score, ZEAMX” value is 5.

For `CC1=C(Cl)C(=O)N(c2cc(C(C)(C)C)n(C)n2)C1OC(=O)Oc1ccccc1` (stereo not shown) [Compound F2], in experiment [1], the “Pre-emergence herbicidal activity, damage score ABUTH” value is listed as 5; the “Pre-emergence herbicidal activity, damage score ALOMY” value was 3; the “Pre-emergence herbicidal activity, damage score AMARE” value came out at 5; the “Pre-emergence herbicidal activity, damage score ECHCG” value stood at 5. For the same compound, in experiment [1], the “Pre-emergence herbicidal activity, damage score SETFA” value was 4 and the “Pre-emergence herbicidal activity, damage score ZEAMX” value was determined as 3. In experiment [2], the “Herbicidal damage score, ABUTH” value came out at 5; the “Herbicidal damage score, ALOMY” value turned out to be 5; the “Herbicidal damage score, AMARE” value was 5; the “Herbicidal damage score, ECHCG” value amounted to 5. Further, in experiment [2], the “Herbicidal damage score, SETFA” value is recorded as 5 and the “Herbicidal damage score, ZEAMX” value was determined as 5.

Take `CC1=C(Cl)C(=O)N(c2cc([S+](C)[O-])n(C)n2)C1O` (mixture of isomers) [Compound B46]: in experiment [1], the “Pre-emergence herbicidal activity, damage score ABUTH” value came out at 5; the “Pre-emergence herbicidal activity, damage score ALOMY” value is listed as 3; the “Pre-emergence herbicidal activity, damage score AMARE” value amounted to 5; the “Pre-emergence herbicidal activity, damage score ECHCG” value came to 4. Also, in experiment [1], the “Pre-emergence herbicidal activity, damage score SETFA” value was found to be 4 and the “Pre-emergence herbicidal activity, damage score ZEAMX” value was 1. For the same compound, in experiment [2], the “Herbicidal damage score, ABUTH” value came out at 5; the “Herbicidal damage score, ALOMY” value is 4; the “Herbicidal damage score, AMARE” value is 5; the “Herbicidal damage score, ECHCG” value is reported as 5. In experiment [2], the “Herbicidal damage score, SETFA” value was 5 and the “Herbicidal damage score, ZEAMX” value was determined as 4.

Consider `CC1=C(Cl)C(=O)N(c2cc(C(C)C)n(C)n2)C1O` (stereo not shown) [Compound B5], for which, in experiment [1], the “Pre-emergence herbicidal activity, damage score ABUTH” value came out at 5; the “Pre-emergence herbicidal activity, damage score ALOMY” value was 3; the “Pre-emergence herbicidal activity, damage score AMARE” value is listed as 5; the “Pre-emergence herbicidal activity, damage score ECHCG” value is given as 5. Moreover, in experiment [1], the “Pre-emergence herbicidal activity, damage score SETFA” value worked out at 4 and the “Pre-emergence herbicidal activity, damage score ZEAMX” value is 2. Moreover, in experiment [2], the “Herbicidal damage score, ABUTH” value is reported as 5; the “Herbicidal damage score, ALOMY” value amounted to 4; the “Herbicidal damage score, AMARE” value is 5; the “Herbicidal damage score, ECHCG” value turned out to be 5. In experiment [2], the “Herbicidal damage score, SETFA” value is listed as 4 and the “Herbicidal damage score, ZEAMX” value amounted to 5.

Regarding `CC(C)=CCc1cc(N2C(=O)C(Cl)=C(C)C2O)nn1C` (stereo not shown) [Compound B22], in experiment [1], the “Pre-emergence herbicidal activity, damage score ABUTH” value worked out at 0; the “Pre-emergence herbicidal activity, damage score ALOMY” value worked out at 0; the “Pre-emergence herbicidal activity, damage score ECHCG” value came to 0; the “Pre-emergence herbicidal activity, damage score SETFA” value is listed as 0. In addition, the “Pre-emergence herbicidal activity, damage score ZEAMX” value in experiment [1] is recorded as 0. In experiment [2], the “Herbicidal damage score, ABUTH” value is reported as 3; the “Herbicidal damage score, ALOMY” value came out at 0; the “Herbicidal damage score, AMARE” value was found to be 0; the “Herbicidal damage score, ECHCG” value is 2. Further, the “Herbicidal damage score, ZEAMX” value in experiment [2] turned out to be 2.

In the case of `CCn1nc(N2C(=O)C(Cl)=C(C)C2O)cc1C(C)(C)C` (stereo not shown) [Compound C2], in experiment [1], the “Pre-emergence herbicidal activity, damage score ABUTH” value was found to be 4; the “Pre-emergence herbicidal activity, damage score ALOMY” value turned out to be 4; the “Pre-emergence herbicidal activity, damage score AMARE” value is recorded as 5; the “Pre-emergence herbicidal activity, damage score ECHCG” value stood at 4. In addition, in experiment [1], the “Pre-emergence herbicidal activity, damage score SETFA” value was 5 and the “Pre-emergence herbicidal activity, damage score ZEAMX” value was 2. Further, in experiment [2], the “Herbicidal damage score, ABUTH” value was found to be 5; the “Herbicidal damage score, ALOMY” value is on record as 5; the “Herbicidal damage score, AMARE” value came out at 4; the “Herbicidal damage score, ECHCG” value was 5. In experiment [2], the “Herbicidal damage score, SETFA” value is recorded as 5 and the “Herbicidal damage score, ZEAMX” value was found to be 3.
